This is an account of results in US10759766B2, “Certain chemical entities, compositions, and methods” (NeuPharma, Inc., priority 2011, dated 2020).

One assay deals with KDR (VEGFR2) (Homo sapiens (Human), UniProt P35968). The assay is described as follows: Z′-LYTE kinase inhibition assay (Invitrogen), KDR. It counts as biochemical. To be noted: Z′-LYTE method; for inhibition at 1 µM: 1 μM compound, read-out: % inhibition at 1 μM against KDR; for IC50: read-out: IC50 against KDR. The protocol:
(§1) Inhibitory activities Inhibitory activities of compounds against BRAF, and BRAF V600E were measured by Invitrogen using Z′-LYTE® Method as briefly described in the following. 4× Test compounds are dissolved in 1% DMSO. […] ATP solutions are diluted to a 4×ATP working concentration in Kinase Buffer (50 mM HEPES pH 7.5, 0.01% BRIJ-35, 10 mM MgCl2, 1 mM EGTA). Reaction started by 30-second shaking of mixture consisting of 2.5 μL 4× test compound, […] and 2.5 μL 4×ATP Solution on Bar-coded Corning, low volume NBS, black 384-well plate (Corning Cat. #3676). Then the mixture was incubated for 60-minute at room temperature for the kinase reaction, followed by addition of 5 μL of a 1:1024 dilution of development reagent A and 30-second plate shake. The mixture was then incubated for another 60-minute at room temperature for development reaction. Fluorescence was read by plate reader. IC50 was calculated by plotting the concentration of compound vs the percentage of inhibition in treated wells using GraphPad Prism 5.
Inhibitory activities of compounds against KDR (VEGFR2) were also measured by Invitrogen using Z′-LYTE® Method as described above with the following modification. The 2× KDR (VEGFR2)/Tyr 01 mixture is prepared in 50 mM HEPES pH 7.5, 0.01% BRIJ-35, 10 mM MgCl2, 1 mM EGTA. The final 10 μL Kinase Reaction consists of 0.5-11.7 ng KDR (VEGFR2) and 2 μM Tyr 01 in 50 mM HEPES pH 7.5, 0.01% BRIJ-35, 10 mM MgCl2, 1 mM EGTA. After the 1 hour Kinase Reaction incubation, 5 μL of a 1:256 dilution of Development Reagent B is added.
The scale utilized in Table 5 is as follows: +++ less than 100 nM; and ++ greater than 100 nM

In a further assay the test system is A549 cells. The assay is described as follows: Inhibition of cancer cell growth, MTT assay, A549. It is filed as cell-based. Conditions: Homo sapiens, A549, 72 h exposure. The procedure:
(§2) Inhibition of cell growth by compounds was measured using MTT assay (Mosmann, T., Journal of Immunological Methods, 1983, 65, 55-63). Tumor cell lines were purchased from ATCC (American Type Culture Collection, Manassas, Va.). All cell lines were maintained in RPMI 1640 (Hyclone) supplemented with 10% fetal bovine serum (FBS, Hyclone), glutamine (2 mM, Hyclone), and antibiotics (penicillin 100 U/mL and streptomycin 50 μg/mL) at 37° C. in a humidified atmosphere of 5% CO2 in air. Taxol (as a positive control, Sigma) and compounds were dissolved in DMSO (Sigma), and the final concentration of DMSO in the medium was 1%. Tumor cells were plated in 96-well plates at densities of about 4000 cells/well of a 96-well plate and allowed to adhere/grow for 24 h. They were then treated with various concentrations of drug for 72 h. 3-(4,5-Dimethylthiazol-2-yl)-2,5-diphenyltetrazolium bromide (MTT, Sigma) was used to determine the number of viable cells at the time of compound addition and the number of cells remaining after 72 h compound exposure. The number of cells remaining after 72 h was compared to the number of viable cells at the time of compound addition by measuring the absorbance at 570 nm, allowing for the calculation of growth inhibition.
(§3) All concentrations of compounds were tested in triplicate and controls were averaged over 4 wells. IC50 was calculated by plotting the concentration of compound vs the percentage of inhibition in treated wells using GraphPad Prism 5. […] The scale utilized in Table 6 is as follows: +++ less than 1000 nM; ++ between 1000 nM and 5000 nM; and + greater than 5000 nM. The scale utilized in Table 7 is as follows: +++ less than 2000 nM; ++ between 2000 nM and 5000 nM; and + greater than 5000 nM.
(In general: Tetrazolium assays rely on reduction of a dye to a coloured formazan, in cell work by metabolically active cells.)

For the next assay, the target named is BRAF V600E (Homo sapiens (Human), UniProt P15056, V600E). In words: Z′-LYTE kinase inhibition assay (Invitrogen), BRAF V600E. It is filed as biochemical. To be noted: 1 μM compound, Z′-LYTE method; read-out: % inhibition at 1 μM against BRAF V600E. The procedure:
as §1
The scale utilized in Table 3 is as follows: +++ less than 100 nM; and ++ greater than 100 nM.

The subject of another assay is A375 cells. The assay is described as follows: Inhibition of cancer cell growth, MTT assay, A375. Conditions: Homo sapiens, A-375, 72 h exposure. It counts as cell-based. The procedure:
as §2, §3

Chain of BRAF V600E (P15056 whole entry V600E): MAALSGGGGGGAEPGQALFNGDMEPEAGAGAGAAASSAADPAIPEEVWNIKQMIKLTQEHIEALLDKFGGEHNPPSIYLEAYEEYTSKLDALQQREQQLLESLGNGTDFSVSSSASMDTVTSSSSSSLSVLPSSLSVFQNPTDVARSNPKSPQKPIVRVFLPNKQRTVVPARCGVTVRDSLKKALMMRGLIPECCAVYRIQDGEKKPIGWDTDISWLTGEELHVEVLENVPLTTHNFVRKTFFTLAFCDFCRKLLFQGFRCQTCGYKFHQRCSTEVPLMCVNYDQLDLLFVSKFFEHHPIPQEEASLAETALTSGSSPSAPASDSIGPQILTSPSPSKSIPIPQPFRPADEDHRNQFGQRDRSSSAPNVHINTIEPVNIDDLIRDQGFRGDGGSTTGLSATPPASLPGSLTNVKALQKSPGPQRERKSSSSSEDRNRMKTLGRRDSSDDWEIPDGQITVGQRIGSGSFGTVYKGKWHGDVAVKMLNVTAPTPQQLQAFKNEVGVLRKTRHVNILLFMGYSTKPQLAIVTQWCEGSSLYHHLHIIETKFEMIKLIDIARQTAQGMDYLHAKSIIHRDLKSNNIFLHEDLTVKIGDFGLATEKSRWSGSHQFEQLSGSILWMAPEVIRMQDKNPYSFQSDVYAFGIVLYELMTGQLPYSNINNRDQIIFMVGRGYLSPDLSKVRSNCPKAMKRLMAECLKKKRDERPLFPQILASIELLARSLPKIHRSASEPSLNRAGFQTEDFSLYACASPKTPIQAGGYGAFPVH
Chain of KDR (VEGFR2) (P35968 20-1356): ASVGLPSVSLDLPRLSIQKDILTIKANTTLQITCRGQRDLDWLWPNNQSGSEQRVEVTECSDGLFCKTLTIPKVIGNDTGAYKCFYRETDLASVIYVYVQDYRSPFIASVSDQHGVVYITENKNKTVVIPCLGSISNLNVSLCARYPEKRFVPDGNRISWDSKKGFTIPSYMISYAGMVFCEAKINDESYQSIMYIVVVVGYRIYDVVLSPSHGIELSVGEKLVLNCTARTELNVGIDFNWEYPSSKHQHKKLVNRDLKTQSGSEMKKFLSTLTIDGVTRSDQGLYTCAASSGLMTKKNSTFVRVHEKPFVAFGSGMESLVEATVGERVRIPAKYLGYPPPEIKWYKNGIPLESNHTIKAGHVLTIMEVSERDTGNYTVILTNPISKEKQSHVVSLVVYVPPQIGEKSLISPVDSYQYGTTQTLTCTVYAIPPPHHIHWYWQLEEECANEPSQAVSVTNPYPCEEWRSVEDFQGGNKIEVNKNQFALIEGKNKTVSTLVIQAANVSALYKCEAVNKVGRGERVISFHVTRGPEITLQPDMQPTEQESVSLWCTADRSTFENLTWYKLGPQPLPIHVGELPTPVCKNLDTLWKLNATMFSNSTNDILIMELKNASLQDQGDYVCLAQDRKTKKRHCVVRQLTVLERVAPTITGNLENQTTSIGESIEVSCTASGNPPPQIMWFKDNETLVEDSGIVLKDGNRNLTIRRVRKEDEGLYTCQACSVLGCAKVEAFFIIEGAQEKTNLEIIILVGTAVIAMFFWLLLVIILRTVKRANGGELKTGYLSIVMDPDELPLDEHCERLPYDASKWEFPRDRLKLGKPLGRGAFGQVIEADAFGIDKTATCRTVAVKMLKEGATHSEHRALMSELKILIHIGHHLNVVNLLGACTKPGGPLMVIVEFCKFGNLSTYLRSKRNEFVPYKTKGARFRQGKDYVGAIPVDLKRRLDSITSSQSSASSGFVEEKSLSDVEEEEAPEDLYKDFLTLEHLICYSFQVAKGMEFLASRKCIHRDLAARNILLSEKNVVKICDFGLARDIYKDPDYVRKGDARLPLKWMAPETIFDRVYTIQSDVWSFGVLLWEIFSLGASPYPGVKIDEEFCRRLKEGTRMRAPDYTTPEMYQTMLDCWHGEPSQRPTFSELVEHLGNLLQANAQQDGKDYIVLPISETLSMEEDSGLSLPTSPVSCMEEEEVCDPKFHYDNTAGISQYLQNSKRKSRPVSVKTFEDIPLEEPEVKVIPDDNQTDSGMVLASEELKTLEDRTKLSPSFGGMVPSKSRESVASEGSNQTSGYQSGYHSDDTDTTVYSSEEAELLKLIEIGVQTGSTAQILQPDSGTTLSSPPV

The inhibition is how much of the control response was suppressed. What is called IC50 is the midpoint of a concentration-inhibition curve. For `O=C(Nc1cccc(F)c1)Nc1cc(F)c(F)c(C(=O)c2ccc3ncc(N4CCNCC4)nc3c2)c1` [Compound C098], the inhibition at 1 µM is 70 to 89% on KDR (VEGFR2) and greater than 89% at BRAF V600E. The compound further returned an IC50 with A549 cells of 2 to 5 µM.
Turning to `O=C(Nc1ccc(Cl)c(C(F)(F)F)c1)Nc1cc(F)c(F)c(C(=O)c2ccc3ncc(N4CCOCC4)nc3c2)c1F` [Compound C032, 1-(4-chloro-3-(trifluoromethyl)phenyl)-3-(2,4,5-trifluoro-3-(3-morpholinoquinoxaline-6-carbonyl)phenyl)urea], the inhibition at 1 µM on KDR (VEGFR2) and at BRAF V600E was less than 70% in each case. Moreover, the IC50 is 2 to 5 µM in the assay with A549 cells and 1 to 5 µM with A375 cells.
Turning to `O=C(Nc1cc(F)c(F)c(C(=O)c2ccc3ncc(N4CCOCC4)nc3c2)c1F)c1cccc(C(F)(F)F)c1` [Compound C138, N-(2,4,5-trifluoro-3-(3-morpholinoquinoxaline-6-carbonyl)phenyl)-3-(trifluoromethyl)benzamide], the figures for the inhibition at 1 µM at KDR (VEGFR2) and on BRAF V600E were greater than 89% and 70 to 89%, respectively. For the same compound, the IC50 in the assay with A549 cells is greater than 5 µM; in the assay on A375 cells, 1 to 5 µM.
Turning to `O=C(Nc1cc(F)cc(C(=O)c2ccc3nccnc3c2)c1)Nc1cccc(C(F)(F)F)c1` [Compound C027, 1-(3-fluoro-5-(quinoxaline-6-carbonyl)phenyl)-3-(3-(trifluoromethyl)phenyl)urea], the inhibition at 1 µM on KDR (VEGFR2) was 70 to 89%; on BRAF V600E, greater than 89%. Also, the IC50 in the assay with A549 cells was less than 2 µM; with A375 cells, greater than 5 µM.
`O=C(Nc1ccc(C(F)(F)F)cc1)Nc1cc(F)cc(C(=O)c2ccc3ncc(N4CCOCC4)nc3c2)c1` [Compound C048, 1-(3-fluoro-5-(3-morpholinoquinoxaline-6-carbonyl)phenyl)-3-(4-(trifluoromethyl)phenyl)urea]: the values for the inhibition at 1 µM on KDR (VEGFR2) and on BRAF V600E were less than 70% and greater than 89%, respectively. The figures for the IC50 in the assay with A549 cells and in the assay with A375 cells were 2 to 5 µM and less than 1 µM, respectively.
On to `NCCNc1cnc2ccc(C(=O)c3cc(NC(=O)Nc4ccc(F)cc4)ccc3F)cc2n1` [Compound C089, 1-(3-(3-((2-aminoethyl)amino)quinoxaline-6-carbonyl)-4-fluorophenyl)-3-(4-fluorophenyl)urea], for which the inhibition at 1 µM on KDR (VEGFR2) and on BRAF V600E was greater than 89% throughout. Besides, the figures for the IC50 with A549 cells and in the assay with A375 cells were greater than 5 µM and 1 to 5 µM, respectively.
As to `O=C(Nc1ccc(F)c(C(=O)c2ccc3nccnc3c2)c1F)c1cccc(F)c1` [Compound C113, N-(2,4-difluoro-3-(quinoxaline-6-carbonyl)phenyl)-3-fluorobenzamide], the inhibition at 1 µM is less than 70% on KDR (VEGFR2) and 70 to 89% at BRAF V600E. The IC50 in the assay on A549 cells and in the assay with A375 cells was greater than 5 µM throughout.
With `O=C(Nc1cc(F)cc(C(=O)c2ccc3ncc(N4CCOCC4)nc3c2)c1)Nc1ccc(Cl)c(F)c1` [Compound C051, 1-(4-chloro-3-fluorophenyl)-3-(3-fluoro-5-(3-morpholinoquinoxaline-6-carbonyl)phenyl)urea], the values for the inhibition at 1 µM on KDR (VEGFR2) and at BRAF V600E were less than 70% and greater than 89%, respectively. The figures for the IC50 with A549 cells and in the assay with A375 cells were 2 to 5 µM and 1 to 5 µM, respectively.
In the case of `O=C(Nc1cc(F)cc(F)c1)Nc1cc(F)c(F)c(C(=O)c2ccc3ncc(N4CCOCC4)nc3c2)c1` [Compound C097], the inhibition at 1 µM at KDR (VEGFR2) is less than 70%; at BRAF V600E, greater than 89%. In the assay with A549 cells, the concentration for half-maximal inhibition (IC50) was 2 to 5 µM.
Consider `O=C(Nc1cc(F)cc(F)c1)Nc1ccc(F)c(C(=O)c2ccc3ncc(N4CCOCC4)nc3c2)c1` [Compound C094, 1-(3,5-difluorophenyl)-3-(4-fluoro-3-(3-morphlinoquinoxaline-6-carbonyl)phenyl)urea], for which the results for the inhibition at 1 µM at KDR (VEGFR2) and at BRAF V600E were less than 70% and greater than 89%, respectively. In the assay with A549 cells, this compound showed an IC50 greater than 5 µM.
The matching figures for `O=C(Nc1ccc(F)c(C(=O)c2ccc3nccnc3c2)c1F)c1cccc(C(F)(F)F)c1` [Compound C114, N-(2,4-difluoro-3-(quinoxaline-6-carbonyl)phenyl)-3-(trifluoromethyl)benzamide]: 70 to 89%, 70 to 89% and greater than 5 µM.
In the case of `O=C(Nc1ccc(F)c(F)c1)Nc1ccc(F)c(C(=O)c2ccc3ncc(N4CCNCC4)nc3c2)c1` [Compound C102, 1-(3,4-difluorophenyl)-3-(4-fluoro-3-(3-(piperazin-1-yl)quinoxaline-6-carbonyl)phenyl)urea], the inhibition at 1 µM on KDR (VEGFR2) and at BRAF V600E was greater than 89% throughout. The IC50 is less than 0.1 µM on KDR (VEGFR2) and 2 to 5 µM in the assay on A549 cells.
On to `O=C(Nc1ccc(F)c(F)c1)Nc1cc(F)c(F)c(C(=O)c2ccc3ncc(N4CCNCC4)nc3c2)c1` [Compound C103, 1-(3,4-difluoro-5-(3-(piperazin-1-yl)quinoxaline-6-carbonyl)phenyl)-3-(3,4-difluorophenyl)urea], for which the IC50 with A549 cells was 2 to 5 µM.
With `O=C(Nc1cc(F)cc(F)c1)Nc1cc(F)c(F)c(C(=O)c2ccc3ncc(N4CCNCC4)nc3c2)c1` [Compound C104, 1-(3,4-difluoro-5-(3-(piperazin-1-yl)quinoxaline-6-carbonyl)phenyl)-3-(3,5-difluorophenyl)urea], the IC50 with A549 cells is greater than 5 µM.
As to `O=C(Nc1cc(F)cc(F)c1)Nc1cc(F)cc(C(=O)c2ccc3ncc(N4CCOCC4)nc3c2)c1` [Compound C093], the inhibition at 1 µM at KDR (VEGFR2) is less than 70%; on BRAF V600E it was greater than 89%. This compound returned an IC50 in the assay on A549 cells of 2 to 5 µM.
For `O=C(Nc1ccc(F)cc1)Nc1cc(F)c(F)c(C(=O)c2ccc3ncc(N4CCOCC4)nc3c2)c1` [Compound C095, 1-(3,4-difluoro-5-(3-morpholinoquinoxaline-6-carbonyl)phenyl)-3-(4-fluorophenyl)urea], the inhibition at 1 µM on KDR (VEGFR2) is 70 to 89%; on BRAF V600E, greater than 89%. In the assay on A549 cells, the IC50 is greater than 5 µM.
On the same counts, the results for `O=C(Nc1cc(F)cc(F)c1)Nc1ccc(F)c(C(=O)c2ccc3ncc(N4CCNCC4)nc3c2)c1` [Compound C101, 1-(3,5-difluorophenyl)-3-(4-fluoro-3-(3-(piperazin-1-yl)quinoxaline-6-carbonyl)phenyl)urea] are 70 to 89%, greater than 89% and 2 to 5 µM.
In the case of `O=C(Nc1ccc(F)cc1)Nc1cc(F)c(F)c(C(=O)c2ccc3ncc(N4CCNCC4)nc3c2)c1` [Compound C099, 1-(3,4-difluoro-5-(3-(piperazin-1-yl)quinoxaline-6-carbonyl)phenyl)-3-(4-fluorophenyl)urea], the inhibition at 1 µM on KDR (VEGFR2) is 70 to 89%; at BRAF V600E, greater than 89%. The IC50 on KDR (VEGFR2) was greater than 0.1 µM; with A549 cells it was less than 2 µM.
On to `O=C(Nc1ccc(F)c(F)c1)Nc1cc(F)c(F)c(C(=O)c2ccc3ncc(N4CCOCC4)nc3c2)c1` [Compound C096], for which the inhibition at 1 µM is less than 70% on KDR (VEGFR2) and greater than 89% at BRAF V600E. The same compound came in with an IC50 with A549 cells greater than 5 µM.
